Like-named read-outs stand apart in the source and are kept apart here.
Key:
[1] = Antianoxic activity test (Test Example 2): effect on the survival time under low-oxygen load at atmospheric pressure; type: in vivo, mice (ddY, five-week-old males); settings: read-out: Antianoxia activity [increase ratio (%) of the survival time]
Text: Antianoxic activity test (effect on the survival time under low-oxygen load at atmospheric pressure)
Groups of 10 mice (ddY, five-week-old males) were used for the experiment with reference to Japan Journal of Pharmacology, 81, 421~429 (1983), same, 86, 323~328 (1985) and same, 89, 355~363 (1987). The test compound was orally given to the mouse as dissolved or suspended in 0.5% solution of sodium carboxymethyl cellulose, the mouse was placed into a transparent plastics container (13×13×16 cm) having a vent, and a gas mixture of 96% nitrogen and 4% oxygen was passed through the container at a rate of 5 liters/min.

[2] = Reversal activity of amnesia (Test Example 1): scopolamine-induced amnesia, step-through passive avoidance, antiamnesia effect; type: in vivo, rats (Wistar, males); settings: read-out: Antiamnesia effect [increase ratio (%) of the step-through latency]; for change in vivo at 10 mg/kg: 10 mg/kg oral
Method: Reversal activity of amnesia
Groups of 6 to 16 rats (Wistar, males, weighing 170 to 240 g) were used for the experiment.
Scopolamine was used as dissolved in physiological saline, and the test compound as dissolved or suspended in 0.5% solution of sodium carboxymethyl cellulose.
Scopolamine was subcutaneously given at a dose of 0.5 mg/kg 30 minutes before aquisition trials. The test compound was orally given immediately after the aquisition trials.
The rat was subjected to habituation trials about 1 hour before aquisition trials. The habituation was accomplished by placing the rat into the light compartment, opening the door 5 seconds thereafter, closing the door when the four legs completely entered the dark compartment, leaving the rat in the dark compartment for 10 seconds and thereafter taking out the rat. The acquisition trial was accomplished in the same manner as the habituation 1 hour thereafter except that simultaneously when the door was closed upon the movement of the rat into the dark compartment, an unescapable foot shock of 4.5 mA was given to the rat by the floor grit for 1 second.
A retention test was conducted 24 hours after the aquisition trials to measure the step-through latency during which the rat placed into the light compartment remained therein before moving into the dark compartment, i.e., the duration of a passive avoidance reaction.

[3] = Acute toxicity test (Test Example 3); settings: mouse, in vivo
Method: Mice (ddY, five-week-old males) were used in groups of 4 to 5 mice each. The test compound was dissolved or suspended in 0.5% solution of sodium carboxymethyl cellulose and administered orally. […] Many of the test compounds produced symptoms of sedation or mascular relaxation for 30 minutes to 6 hours, followed by gradual recovery. The original state was restored two days later.

[4] = 30 mg/kg oral, mouse, 96% nitrogen and 4% oxygen, vs control group
[5] = 100 mg/kg oral, mouse, 96% nitrogen and 4% oxygen, vs control group
[6] = 300 mg/kg oral, mouse, 96% nitrogen and 4% oxygen, vs control group
[7] = rat, retention test 24 hours after acquisition, scopolamine 0.5 mg/kg s.c., vs control group
[8] = 30 mg/kg oral, rat, retention test 24 hours after acquisition, scopolamine 0.5 mg/kg s.c., vs control group
[9] = 100 mg/kg oral, rat, retention test 24 hours after acquisition, scopolamine 0.5 mg/kg s.c., vs control group
[10] = 300 mg/kg oral, rat, retention test 24 hours after acquisition, scopolamine 0.5 mg/kg s.c., vs control group

| SMILES | ILS at 30 mg/kg [1, 4] | ILS at 100 mg/kg [1, 5] | ILS at 300 mg/kg [1, 6] | change in vivo at 10 mg/kg [2, 7] | change in vivo at 30 mg/kg [2, 8] | change in vivo at 100 mg/kg [2, 9] | change in vivo at 300 mg/kg [2, 10] | LD50 at 72 h ([3]; po) | ILS at 30 mg/kg ([1]; Mus musculus, po) | ILS at 100 mg/kg ([1]; Mus musculus, po) | ILS at 300 mg/kg ([1]; Mus musculus, po) | change in vivo at 30 mg/kg ([2]; Rattus norvegicus, po, 24 h) | change in vivo at 100 mg/kg ([2]; Rattus norvegicus, po, 24 h) | change in vivo at 300 mg/kg ([2]; Rattus norvegicus, po, 24 h) | LD50 at 72 h ([3]; oral, observed for 3 days) |
| --- | --- | --- | --- | --- | --- | --- | --- | --- | --- | --- | --- | --- | --- | --- | --- |
| O=C1CCCN1C(=O)Nc1ccccc1 [Compound 1] | -15% | 15% | 39% | 360% | 623% | 367% | 230% | > 5000 mg/kg |  |  |  |  |  |  |  |
| COc1ccc(NC(=O)N2CCCC2=O)cc1OC [Compound 6] | 0% | -4% | 14% |  | 138% | 568% | 596% | > 5000 mg/kg |  |  |  |  |  |  |  |
| O=C1CCCN1C(=O)Nc1nccs1 [Compound 10] | -4% | -1% | 35% |  | 166% | 144% | 475% | 5000 mg/kg |  |  |  |  |  |  |  |
| O=C1CCCN1C(=O)Nc1cccc2c1CCCC2 [Compound 8] | 30% | 25% | 20% | 125% | 531% | 490% | 414% | > 5000 mg/kg |  |  |  |  |  |  |  |
| COc1cc(NC(=O)N2CCCC2=O)cc(OC)c1OC [Compound 7] | 4% | 11% | 66% |  | -10% | 209% | 345% | 5000 mg/kg |  |  |  |  |  |  |  |
| COc1ccc(C(=O)N2CCCC2=O)cc1 [Aniracetam, reference compound] |  |  |  |  |  |  |  |  | 19% | 26% | 23% | 230% | 288% | 42% |  |
| COc1ccc(NC(=O)N2CC(O)CC2=O)cc1 (stereo not drawn) [Compound 12] | 5% | 7% | 63% |  |  |  |  |  |  |  |  |  |  |  |  |
| CC1CCN(C(=O)Nc2ccccc2)C1=O (stereo not drawn) [Compound 13] | 9% | 87% | 37% |  |  |  |  | > 2000 mg/kg |  |  |  |  |  |  |  |
| O=C1CCC(CO)N1C(=O)Nc1ccccc1 (stereo not drawn) [Compound 16, 5-hydroxymethyl-1-phenylcarbamoyl-2-pyrrolidinone] | 10% | 36% | 89% |  | 135% | 103% | 50% |  |  |  |  |  |  |  | 5000 mg/kg |
| COc1ccc(NC(=O)N2CCCC2=O)cc1 [Compound 2, 1-(4-methoxyphenylcarbamoyl)-2-pyrrolidinone] | 11% | 5% | 27% | 346% | 557% | 623% | 507% |  |  |  |  |  |  |  | > 5000 mg/kg |
| COc1ccc(NC(=O)N2CCC(C)C2=O)cc1 (stereo not drawn) [Compound 14, 3-methyl-1-(4-methoxyphenylcarbamoyl)-2-pyrrolidinone] | 9% | 26% | 34% |  | 75% | 6% | 1% |  |  |  |  |  |  |  | > 5000 mg/kg |
| COc1ccc(NC(=O)N2C(=O)CCC2C)cc1 (stereo not drawn) [Compound 15] | -3% | -1% | 11% |  | 25% | 148% | 672% | > 5000 mg/kg |  |  |  |  |  |  |  |
| CN(C)c1ccc(NC(=O)N2CCCC2=O)cc1 [Compound 5] | -4% | 22% | 9% | 119% | 598% | 213% | 79% |  |  |  |  |  |  |  | < 5000 mg/kg |
| O=C1CCCN1C(=O)Nc1ccncc1 [Compound 9] | 13% | 12% | 16% | -7% | 245% | 157% | 41% |  |  |  |  |  |  |  | < 5000 mg/kg |
| O=C1CCCN1C(=O)Nc1ccc(Cl)cc1 [Compound 3] | 11% | 15% | 46% |  |  |  |  | > 2000 mg/kg |  |  |  |  |  |  |  |
| O=C1CC(O)CN1C(=O)Nc1ccccc1 (stereo not drawn) [Compound 11, 1-phenylcarbamoyl-4-hydroxy-2-pyrrolidinone] | 11% | 62% | 96% |  | 346% | 198% | 518% |  |  |  |  |  |  |  |  |

From patent US5447944A, “Carbamoyl-2-pyrrolidinone compounds” (Taiho Pharmaceutical Company, Limited, priority 1988, dated 1995)
